Test results as given in patent US20030235646A1, “Method for improving quality of meat by supplementing pig diets and concentrates used therefor” (Lonza Inc., priority 2002, published 2003).

Tests used:
[1] = test system: finishing pigs (longissimus muscle); experiment: Carcass quality measures of finishing pigs fed Carnitine and Paylean (Example 1); assay type: in vivo; design: key to L*: lightness: 100 = perfect white, 0 = absolute black; key to Firmness: score 1 = soft and watery, 5 = firm and dry; Hue angle / Drip loss: unit not given here; settings: for Temperature: 45 minutes postmortem
Excerpt: Color is qualitatively measured using Minolta color-spectrometry, a process which evaluates the Hunter L* and a* values of the meat color, as well as by the saturation index and the Hue Angle value. Hunter L* value measures the lightness of the meat color and varies from 100 for perfect white to 0 for absolute black. Acceptable values for pork range from 35 to 55, with 40-45 values being most preferred by consumers.
The other Hunter value is related to the hue of the color of the meat, with increasing a* values indicating redness and decreasing a values indicating greenness. High quality pork has Hunter a* values which range from 7.5 to 12, and consumers prefer meat with 9-9.5 scores.
Hue Angle value measures the discoloration of meat. Increasing values indicate increasing discoloration of meat. Decreasing values indicate reduction of the discoloration. Acceptable pork Hue Angle values range from 48 to 54, and the preferred values range from 48-52.
The final spectrographic measurement is the saturation index, which is related to the strength of the color of the meat. Acceptable pork saturation index values range from 12 to 15.5, with values from 13-14.5 being preferred. The color of the meat is of particular importance in some export markets, such as Japan, Korea, Asia and South America. […] Acceptable marbling score ranges from 1 to 3, with 2.5 being preferred.
Drip loss is a measurement of the ability of the sample to retain water. In this procedure, a standardized amount of lean pork muscle, i.e., a cubic centimeter, is weighed, then suspended in an airtight container from a hook for 24 hours. The difference in weight from beginning to end of the 24 hour period represents the amount of water loss or purge. The greater the amount of purge loss, the poorer the pork quality. Changes in the pH of pork associated with postmortem metabolism affect the isoelectric point of the various amino acids in protein, and thus can affect the protein's ability to bind water. Pork with high drip loss is termed in the industry as “exudative” which is undesirable to both meat producers and consumers.
The firmness of the meat is measured visually on the score from 1 to 5, 1 being soft and watery, 5 being firm and dry. The acceptable score is 2-4, and the preferred score is 2.5-3.5. This characteristic of pork has become important due to recent attempts to genetically improve the leanness of the meat. The desired leanness has been accompanied by a negative impact on the meat firmness. As a result, approximately 30% of the meat now going through packing houses has been categorized as PSE (Pale Soft Exudative meat) and is unacceptable to the consumer, thus causing economic loss to the meat producer according to the National Meat Producers Council. Thus, there is an urgent need in the art for means of improving the quality (firmness, color, marbling) and carcass characteristics of the pork.
(§1) One hundred twenty-six gilts (initially 73.6 lb, PIC C22×L326) were allotted by weight and ancestry in a randomized complete block design to each of the nine experimental treatments arranged in a 3×3 factorial arrangement. There were two pigs/pen and seven replicates/treatment. Pigs were housed in an environmentally controlled building with 4-ft×4-ft slatted-floor pens.
Pigs were fed a corn-soybean meal diet composed of the following:
L-carnitine (0, 25, or 50 ppm) was added to the diet from 73.6 lb until slaughter (approximately 240 lb). Paylean (a registered trademark of Eli Lilly Company for ractopamine) treatments (0, 4.5, or 9 g/ton) were fed for the last four weeks of the experiment. The basal diet was formulated to contain 1.10% lysine from 73.6 to 164 lb, and 1.00% lysine from 164 lb until the end of the experiment. These quantities of Paylean are equivalent to 0, 5, and 10 ppm of ractopamine in the feed, respectively. […]

pigs = experiment: Growth performance of pigs (Example 1); assay type: in vivo; settings: between 73.6 and 164 lb; P>0.64
Method: as §1
L-carnitine (0, 25, or 50 ppm) was added to the diet from 73.6 lb until slaughter (approximately 240 lb). Paylean (a registered trademark of Eli Lilly Company for ractopamine) treatments (0, 4.5, or 9 g/ton) were fed for the last four weeks of the experiment. The basal diet was formulated to contain 1.10% lysine from 73.6 to 164 lb, and 1.00% lysine from 164 lb until the end of the experiment. These quantities of Paylean are equivalent to 0, 5, and 10 ppm of ractopamine in the feed, respectively.
Weights were obtained on every pig and feed disappearance was recorded every fourteen days during the experiment until the last four weeks, at which time measurements were taken weekly to calculate ADG, ADFI, and feed efficiency (F/G). One pig (closest to 240 lb) per pen was selected and slaughtered at the Kansas State University Meat Laboratory. […]
Data were analyzed as a randomized complete block. […]

pork = experiment: Follow-up studies of pork drip loss (Example 3, FIGS. 1 and 2); assay type: in vivo, pigs
Method: Drip loss is a measurement of the ability of the sample to retain water. In this procedure, a standardized amount of lean pork muscle, i.e., a cubic centimeter, is weighed, then suspended in an airtight container from a hook for 24 hours. The difference in weight from beginning to end of the 24 hour period represents the amount of water loss or purge. […] Changes in the pH of pork associated with postmortem metabolism affect the isoelectric point of the various amino acids in protein, and thus can affect the protein's ability to bind water.

finishing pigs = experiment: Carcass characteristics of finishing pigs fed Carnitine and Paylean (Example 2); assay type: in vivo; settings: for Firmness / Marbling / Visual cobra: score 1 to 5
Method: Because of the dramatic and potentially economically important changes in pork quality observed in the data of Example 1, a second trial was conducted to confirm these observations. This experiment was conducted in the same facility as Example 1 and used the same diet in Table 1. The primary difference was that the 4.5 g/ton ractopamine level was not included; i.e., only 0 or 9 grams/ton ractopamine was combined with either 0, 25, or 50 ppm of added L-camitine.

[2] = Paylean 0 g/ton, Carnitine 25 ppm
[3] = Paylean 0 g/ton, Carnitine 25 ppm, score 1 to 5
[4] = Paylean 0 g/ton, Carnitine 50 ppm
[5] = Paylean 0 g/ton, Carnitine 50 ppm, score 1 to 5
[6] = with 4.5 or 9 g/ton Paylean, but not control pigs
[7] = with increasing levels, linear, P<0.04
[8] = Paylean 4.5 g/ton, Carnitine 0 ppm
[9] = Paylean 4.5 g/ton, Carnitine 0 ppm, score 1 to 5
[10] = Paylean 9 g/ton, Carnitine 0 ppm
[11] = Paylean 9 g/ton, Carnitine 0 ppm, score 1 to 5

Compound: C[N+](C)(C)C[C@H](O)CC(=O)[O-] [Carnitine, L-carnitine]
- Drip loss [1, 2]: 2.80
- Hue angle [1, 2]: 67.38
- L* [1, 2]: 58.01
- PH 45 m postmortem [1, 2]: 6.55
- PH 24 h postmortem [1, 2]: 5.79
- Saturation index [1, 2]: 15.89
- a* [1, 2]: 6.17
- a*/b* [1, 2]: 0.42
- b* [1, 2]: 14.61
- Temperature [1, 2]: 34.83 °C
- Firmness [1, 3]: 1.65
- Marbling [1, 3]: 1.71
- Visual color [1, 3]: 2.78
- Drip loss [1, 4]: 2.07
- Hue angle [1, 4]: 67.05
- L* [1, 4]: 56.80
- PH 45 m postmortem [1, 4]: 6.46
- PH 24 h postmortem [1, 4]: 5.76
- Saturation index [1, 4]: 16.44
- a* [1, 4]: 6.45
- a*/b* [1, 4]: 0.43
- b* [1, 4]: 15.10
- Temperature [1, 4]: 32.98 °C
- Firmness [1, 5]: 1.93
- Marbling [1, 5]: 1.85
- Visual color [1, 5]: 3.14
- visual color scores ([1]; in control pigs): did not improve
- L* values ([1]; increasing levels, fed with 4.5 or 9 g/ton of Paylean, longissimus muscle at 10th rib): lower L* values
- color, marbling, L*, a*/b* ratio and hue angle ([1]; supplementing finishing pig diets): positively improve
- Visual color ([1]; when 4.5 or 9 g/ton of Paylean was fed): did improve
- Hue angle values [1, 6]: lower
- a*/b* values [1, 6]: lower
- Drip loss measured 48 hours postmortem [1, 7]: decreased
- temperature at 45 minutes postmortem [1, 7]: decreased
- Ultimate (24-h) pH ([1]; with increasing levels, linear, P<0.07): increased
- Measurements of b* ([1]; with increasing levels, quadratic, P<0.05): decreased
- saturation index measured on the longissimus muscle ([1]; with increasing levels, quadratic, P<0.07): tended to decrease
- growth performance of pigs (pigs): did not affect
- effect on drip loss (pork; 50 ppm, without ractopamine, two of the three studies, FIG. 1): small positive effect
- effect on reducing (improving) pork drip loss (pork; added to diet containing ractopamine, FIG. 2): greater net positive effect
- Drip loss (finishing pigs; [2]): 3.07%
- Hue angle (finishing pigs; [2]): 64.61
- L* (finishing pigs; [2]): 57.23
- Saturation index (finishing pigs; [2]): 17.59
- Temperature 5 min (finishing pigs; [2]): 39.79 °C
- Temperature 15 min (finishing pigs; [2]): 39.92 °C
- Temperature 45 min (finishing pigs; [2]): 39.03 °C
- Temperature 1.5 h (finishing pigs; [2]): 32.87 °C
- Temperature 3 h (finishing pigs; [2]): 22.12 °C
- Temperature 6 h (finishing pigs; [2]): 11.28 °C
- a* (finishing pigs; [2]): 7.58
- a*/b* (finishing pigs; [2]): 0.48
- b* (finishing pigs; [2]): 15.86
- pH 0 min (finishing pigs; [2]): 7.13
- pH 5 min (finishing pigs; [2]): 6.84
- pH 15 min (finishing pigs; [2]): 6.60
- pH 45 min (finishing pigs; [2]): 6.16
- pH 1.5 h (finishing pigs; [2]): 5.91
- pH 3 h (finishing pigs; [2]): 5.76
- pH 6 h (finishing pigs; [2]): 5.70
- pH 24 h (finishing pigs; [2]): 5.61
- Firmness (finishing pigs; [2]): 2.44
- Marbling (finishing pigs; [2]): 1.75
- Visual cobra (finishing pigs; [2]): 3.10
- Drip loss (finishing pigs; [4]): 2.73%
- Hue angle (finishing pigs; [4]): 64.07
- L* (finishing pigs; [4]): 58.00
- Saturation index (finishing pigs; [4]): 18.11
- Temperature 5 min (finishing pigs; [4]): 39.17 °C
- Temperature 15 min (finishing pigs; [4]): 39.56 °C
- Temperature 45 min (finishing pigs; [4]): 38.73 °C
- Temperature 1.5 h (finishing pigs; [4]): 33.17 °C
- Temperature 3 h (finishing pigs; [4]): 20.89 °C
- Temperature 6 h (finishing pigs; [4]): 11.22 °C
- a* (finishing pigs; [4]): 7.93
- a*/b* (finishing pigs; [4]): 0.49
- b* (finishing pigs; [4]): 16.27
- pH 0 min (finishing pigs; [4]): 7.21
- pH 5 min (finishing pigs; [4]): 6.82
- pH 15 min (finishing pigs; [4]): 6.58
- pH 45 min (finishing pigs; [4]): 6.02
- pH 1.5 h (finishing pigs; [4]): 5.97
- pH 3 h (finishing pigs; [4]): 5.88
- pH 6 h (finishing pigs; [4]): 5.70
- pH 24 h (finishing pigs; [4]): 5.60
- Firmness (finishing pigs; [4]): 2.34
- Marbling (finishing pigs; [4]): 1.55
- Visual cobra (finishing pigs; [4]): 2.90
- meat quality (finishing pigs; in pigs fed Paylean): improves meat quality

Compound: CC(CCc1ccc(O)cc1)NCC(O)c1ccc(O)cc1 (centres unmarked) [Paylean, ractopamine, reference compound]
- Drip loss [1, 8]: 3.13
- Hue angle [1, 8]: 69.95
- L* [1, 8]: 60.78
- PH 45 m postmortem [1, 8]: 6.41
- PH 24 h postmortem [1, 8]: 5.79
- Saturation index [1, 8]: 16.76
- a* [1, 8]: 5.78
- a*/b* [1, 8]: 0.37
- b* [1, 8]: 15.69
- Temperature [1, 8]: 34.39 °C
- Firmness [1, 9]: 1.79
- Marbling [1, 9]: 1.35
- Visual color [1, 9]: 2.57
- Drip loss [1, 10]: 3.68
- Hue angle [1, 10]: 68.65
- L* [1, 10]: 61.53
- PH 45 m postmortem [1, 10]: 6.33
- PH 24 h postmortem [1, 10]: 5.71
- Saturation index [1, 10]: 17.12
- a* [1, 10]: 6.30
- a*/b* [1, 10]: 0.39
- b* [1, 10]: 15.90
- Temperature [1, 10]: 35.72 °C
- Firmness [1, 11]: 1.79
- Marbling [1, 11]: 1.64
- Visual color [1, 11]: 2.57
- Twenty-four hour pH ([1]; with increasing levels of Paylean, quadratic, P<0.06, highest at 4.5 g/ton): increased and then decreased
- Drip loss (finishing pigs; [10]): 4.85%
- Hue angle (finishing pigs; [10]): 65.14
- L* (finishing pigs; [10]): 59.72
- Saturation index (finishing pigs; [10]): 18.74
- Temperature 5 min (finishing pigs; [10]): 39.60 °C
- Temperature 15 min (finishing pigs; [10]): 40.42 °C
- Temperature 45 min (finishing pigs; [10]): 39.43 °C
- Temperature 1.5 h (finishing pigs; [10]): 35.99 °C
- Temperature 3 h (finishing pigs; [10]): 24.38 °C
- Temperature 6 h (finishing pigs; [10]): 12.04 °C
- a* (finishing pigs; [10]): 7.94
- a*/b* (finishing pigs; [10]): 0.46
- b* (finishing pigs; [10]): 16.97
- pH 0 min (finishing pigs; [10]): 7.16
- pH 5 min (finishing pigs; [10]): 6.79
- pH 15 min (finishing pigs; [10]): 6.59
- pH 45 min (finishing pigs; [10]): 6.14
- pH 1.5 h (finishing pigs; [10]): 5.89
- pH 3 h (finishing pigs; [10]): 5.59
- pH 6 h (finishing pigs; [10]): 5.61
- pH 24 h (finishing pigs; [10]): 5.58
- Firmness (finishing pigs; [10]): 1.99
- Marbling (finishing pigs; [10]): 1.85
- Visual cobra (finishing pigs; [10]): 2.75
